The record followed here is patent publication US20090291919A1, “Compositions and Methods for Treating or Preventing Ophthalmic Light Toxicity” (University of Florida Research Foundation, Inc., priority 2006, published 2009).

The test system of series [1] is purified wt (wild-type) opsin. Kind of series: Pigment formation of compound alone with opsin (500 nm absorbing pigment). The settings on record: compound added to opsin without 11-cis-retinal.
Protocol: (§1) To test whether this compound associates with wild-type (WT) opsin to form pigment, it was added to opsin solution in vitro.
For a further series, the system named is purified WT opsin. Description: Opsin regeneration: pigment (rhodopsin) formation with 11-cis-retinal in presence of compound. The settings on record: for inhibition of pigment formation of opsin with 11-cis-retinal / of binding of 11-cis-retinal to opsin: in vitro, result in words.
The nature of series [2]: Absorption of the compound by itself in the visible spectrum.
Protocol: as §1

“Also recorded” adds a separate entry of the source.

Protocol for purified WT opsin: In a typical competition assay of the invention, a compound is sought that will tie up the retinal binding pocket of the opsin protein. Thus, the assay seeks to identify a non-retinoid compound (one that will not be tightly regulated by the retina as to amount entering rod cells) that competes with 11-cis-retinal. Over time this will slow the rate of formation of rhodopsin relative to the rate when 11-cis-retinal alone is present. In one embodiment, the assay is conducted in the presence of 11-cis-retinal, and the rate of formation of rhodopsin is measured as a way of determining competition for the retinal binding pocket, for example, by determining the rate of increase in the 500 nm peak characteristic for rhodopsin. No antibodies for rhodopsin are required for this assay.

As to `CC(=O)/C=C/C1=C(C)CCCC1(C)C` [β-ionone, reference compound], the “formation of a 500 nm absorbing pigment with opsin” value in series [1] is listed as “does not form a light absorbing pigment; also recorded: does not itself form a 500 nm absorbing pigment; also recorded: no 500 nm absorbing pigment was formed”. Also, the “inhibition of pigment formation of opsin with 11-cis-retinal / of binding of 11-cis-retinal to opsin” value in the series with purified WT opsin is “inhibit binding of retinal to the site; also recorded: inhibited opsin regeneration in a dose dependent manner”.

Consider `CC(=O)c1c(C)n[nH]c1C` [SN10011, 1-(3,5-dimethyl-1H-pyrazol-4-yl)ethanone], for which, in series [2], the “absorption in the visible spectrum” value is “did not show any absorption in the visible spectrum; also recorded: does not absorb in the visible spectrum”. The “formation of a 500 nm absorbing pigment with opsin” value in series [1] is listed as “No pigment was formed; also recorded: no 500 nm absorbing pigment was generated”. In addition, the “extent of inhibition of regeneration compared with β-ionone” value in the series on purified WT opsin (SN10011 2 and 5 mM vs β-ionone) is “much lower”. The “inhibition of pigment formation of opsin with 11-cis-retinal / of binding of 11-cis-retinal to opsin” value in the series on purified WT opsin was “reversibly inhibits binding of 11-cis-retinal; also recorded: significant effect on inhibition of pigment formation; also recorded: inhibited”; with purified WT opsin (listed as SN 10011), “inhibits the binding of 11-cis-retinal to opsin in vitro”.
